Here are results for 19 compounds from ChEMBL document CHEMBL1141697, “Promising core structure for nuclear receptor ligands: design and synthesis of novel estrogen receptor ligands based on diphenylamine skeleton” (Bioorg Med Chem Lett, 2008).

The source made the active and inactive calls. No cut-off for these calls is given here.

The target in test [1] is T1, Estrogen receptor (Homo sapiens) (UniProt P03372).
T1 sequence (whole entry): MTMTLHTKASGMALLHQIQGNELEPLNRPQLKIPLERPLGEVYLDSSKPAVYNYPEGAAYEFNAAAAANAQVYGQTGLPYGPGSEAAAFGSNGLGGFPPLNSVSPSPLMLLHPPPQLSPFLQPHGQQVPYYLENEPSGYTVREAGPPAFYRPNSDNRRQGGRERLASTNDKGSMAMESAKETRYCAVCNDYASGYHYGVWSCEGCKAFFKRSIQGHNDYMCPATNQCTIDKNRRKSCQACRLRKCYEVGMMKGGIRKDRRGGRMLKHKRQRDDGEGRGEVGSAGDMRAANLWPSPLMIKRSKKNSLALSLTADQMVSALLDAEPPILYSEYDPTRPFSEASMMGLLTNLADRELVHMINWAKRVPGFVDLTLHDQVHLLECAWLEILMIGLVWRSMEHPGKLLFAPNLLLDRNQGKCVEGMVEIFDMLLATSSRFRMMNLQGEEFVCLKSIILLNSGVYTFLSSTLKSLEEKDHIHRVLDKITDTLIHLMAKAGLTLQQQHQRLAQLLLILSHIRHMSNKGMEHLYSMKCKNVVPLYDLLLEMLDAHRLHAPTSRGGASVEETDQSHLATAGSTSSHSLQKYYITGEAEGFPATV
Kind of test: Displacement of [2,4,6,7-3H]17beta-estradiol from human recombinant ERalpha receptor by liquid scintillation counter relative to 17-beta-estradiol.

Test [2] addresses Estrogen receptor beta (Homo sapiens) (UniProt Q92731). The test is described as follows: Displacement of [2,4,6,7-3H]17beta-estradiol from human recombinant ERbeta receptor by liquid scintillation counter relative to 17-beta-estradiol.
The test system of test [3] is MCF7. The test is described as follows: Estrogenic activity in human MCF7 cells assessed as cell proliferation after 6 days by WST8 assay relative to 17-beta-estradiol. It counts as functional. (In general: Tetrazolium assays rely on reduction of a dye to a coloured formazan, in cell work by metabolically active cells.)
The subject of test [4] is MCF7. The test is described as follows: Antiestrogenic activity in human MCF7 cells. It counts as functional, cell-based.
Test [5] relates to MCF7. The test is described as follows: cells. As to conditions: Homo sapiens, MCF7, 144 h.
The subject of test [6] is MCF7. Kind of test: Estrogenic activity in human MCF7 cells assessed as cell proliferation after 6 days by WST8 assay.
For a further test, the species on record is Homo sapiens. The test is described as follows: Selectivity ratio of relative binding affinity for human recombinant ERalpha receptor to relative binding affinity for human recombinant ERbeta receptor.

Sequence of Estrogen receptor beta (Homo sapiens) (Q92731 whole entry): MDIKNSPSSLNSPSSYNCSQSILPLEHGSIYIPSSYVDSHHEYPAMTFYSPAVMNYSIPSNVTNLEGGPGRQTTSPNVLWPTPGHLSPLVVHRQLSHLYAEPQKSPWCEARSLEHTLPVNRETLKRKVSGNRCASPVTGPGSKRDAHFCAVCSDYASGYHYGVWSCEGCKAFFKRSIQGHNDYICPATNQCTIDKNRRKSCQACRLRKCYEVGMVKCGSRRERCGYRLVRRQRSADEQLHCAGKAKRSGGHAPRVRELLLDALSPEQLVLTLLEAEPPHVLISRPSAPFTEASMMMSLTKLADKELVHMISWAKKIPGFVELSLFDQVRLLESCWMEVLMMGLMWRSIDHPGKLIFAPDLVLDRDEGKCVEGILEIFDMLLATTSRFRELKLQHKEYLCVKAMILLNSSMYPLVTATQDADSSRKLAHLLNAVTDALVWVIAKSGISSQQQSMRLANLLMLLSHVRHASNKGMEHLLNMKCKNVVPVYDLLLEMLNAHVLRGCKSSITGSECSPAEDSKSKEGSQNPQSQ

By EC50 is commonly meant the midpoint of the concentration-response curve. A higher EC50 goes with a need for much substance. For `CC(=O)N(c1ccc(O)cc1)c1ccc(O)cc1`, the relative binding affinity (RBA) in test [1] and in test [2] was less than 0.001 each time. Further, the Activity with MCF7 [3] worked out at 114. Moreover, in the test with MCF7 [4], the result was inactive. In the test on MCF7 [5], this compound yielded an EC50 of 43 µM.
As for `Oc1ccc(Nc2ccc(O)cc2)cc1`, the relative binding affinity (RBA) in test [1] and in test [2] was less than 0.001 throughout. Further, the outcome with MCF7 [4] and with MCF7 [6] was inactive.
Turning to `CC(C)CCN(c1ccc(O)cc1)c1ccc(O)cc1`, the relative binding affinity (RBA) in test [1] is 0.129; in test [2] it was 2.34. Also, the Activity in the test with MCF7 [3] was found to be 31. Also, in the test with MCF7 [4], the outcome was inactive. Moreover, the Ratio in the test filed under Homo sapiens was found to be 18.1. Moreover, in the test on MCF7 [5], the 50% effective concentration (EC50) came to 0.57 µM.
On to `Oc1ccc(N(c2ccccc2)c2ccc(O)cc2)cc1`, for which the relative binding affinity (RBA) in test [1] was 1.29; in test [2], 1.91. Also, in the test with MCF7 [3], the Activity is given as 87. Also, the result with MCF7 [4] was inactive. Further, in the test listed under Homo sapiens, the Ratio worked out at 1.48. Also, the EC50 with MCF7 [5] was found to be 0.12 µM.
On to `Oc1ccc(N(CC2CC2)c2ccc(O)cc2)cc1`, for which the relative binding affinity (RBA) is 0.054 in test [1] and less than 0.001 in test [2]. For the same compound, the result with MCF7 [4] was inactive.
Consider `CCCCCCN(c1ccc(O)cc1)c1ccc(O)cc1`, for which the relative binding affinity (RBA) in test [1] worked out at 0.153; in test [2], 0.102. The Activity in the test with MCF7 [3] was determined as 130. Further, the outcome in the test with MCF7 [4] was inactive. Further, the Ratio in the test filed under Homo sapiens turned out to be 0.667. Moreover, in the test with MCF7 [5], the EC50 was found to be 0.011 µM.
Consider `Oc1ccc(N(c2ccc(O)cc2)C2CCCCC2)cc1`, for which the figures for the relative binding affinity (RBA) in test [1] and in test [2] were 1.13 and 4.3, respectively. Moreover, the Activity with MCF7 [3] amounted to 64. In addition, the outcome in the test on MCF7 [4] was inactive. The Ratio in the test listed under Homo sapiens amounted to 3.8. Further, the EC50 in the test on MCF7 [5] worked out at 0.59 µM.
On to `CC(C)N(c1ccc(O)cc1)c1ccc(O)cc1`, for which the relative binding affinity (RBA) in test [1] and in test [2] was less than 0.001 throughout. Moreover, the outcome with MCF7 [4] and with MCF7 [6] was inactive.
As for `Oc1ccc(N(CCC2CCCCC2)c2ccc(O)cc2)cc1`, the figures for the relative binding affinity (RBA) in test [1] and in test [2] were 3.64 and 6.84, respectively. Further, the Activity in the test with MCF7 [3] amounted to 71. In addition, in the test with MCF7 [4], the outcome was inactive. Besides, in the test listed under Homo sapiens, the Ratio is 1.88. In the test on MCF7 [5], this compound returned an EC50 of 0.5 µM.
For the compound `Oc1ccc(N(CC2CCCCC2)c2ccc(O)cc2)cc1`, the results for the relative binding affinity (RBA) in test [1] and in test [2] were 0.89 and 6.7, respectively. In addition, the Activity in the test with MCF7 [3] is listed as 109. Further, the result with MCF7 [4] was inactive. In the test filed under Homo sapiens, the Ratio is 7.52. Moreover, in the test on MCF7 [5], the 50% effective concentration (EC50) is 0.21 µM.
`CS(=O)(=O)N(c1ccc(O)cc1)c1ccc(O)cc1`: the relative binding affinity (RBA) in test [1] and in test [2] was less than 0.001 in each case. In addition, the Activity with MCF7 [3] is given as 213. Besides, the outcome with MCF7 [4] was inactive. The compound further displayed a concentration giving a half-maximal response (EC50) in the test on MCF7 [5] of 6.9 µM.
As to `Oc1ccc(CN(c2ccc(O)cc2)c2ccc(O)cc2)cc1`, the relative binding affinity (RBA) in test [1] is 4.26; in test [2], 4.05. Besides, the Activity with MCF7 [3] is on record as 42. Further, the outcome with MCF7 [4] was inactive. The Ratio in the test filed under Homo sapiens was determined as 0.951. For the same compound, the midpoint of the response with MCF7 [5], the EC50, lay at 0.37 µM.
Consider `O=S(=O)(c1ccccc1)N(c1ccc(O)cc1)c1ccc(O)cc1`, for which the relative binding affinity (RBA) in test [1] was 0.04; in test [2], less than 0.001. Also, the Activity in the test with MCF7 [3] is 98. In addition, the result in the test on MCF7 [4] was inactive. In the test with MCF7 [5], a half-maximal effect (EC50) was put at 0.063 µM.
`O=S(=O)(c1ccc(O)cc1)N(c1ccc(O)cc1)c1ccc(O)cc1`: the relative binding affinity (RBA) was 0.352 in test [1] and 0.004 in test [2]. Besides, the Activity in the test with MCF7 [3] came out at 99. The outcome in the test with MCF7 [4] was inactive. Further, the Ratio in the test listed under Homo sapiens was determined as 0.011. Besides, the concentration for a half-maximal effect (EC50) in the test with MCF7 [5] was found to be 0.012 µM.
Turning to `Oc1ccc(N(CC23CC4CC(CC(Br)(C4)C2)C3)c2ccc(O)cc2)cc1`, the results for the relative binding affinity (RBA) in test [1] and in test [2] were 0.551 and 0.565, respectively. The Activity with MCF7 [3] turned out to be 77. The result in the test with MCF7 [4] was inactive. Also, the Ratio in the test listed under Homo sapiens is 1.02. Also, in the test with MCF7 [5], the response was half-maximal at 11 µM (EC50).
For `O=C(c1ccc(O)cc1)N(c1ccc(O)cc1)c1ccc(O)cc1`, the relative binding affinity (RBA) in test [1] came out at 0.336; in test [2], 0.063. Moreover, the Activity in the test on MCF7 [3] is recorded as 240. Further, the outcome with MCF7 [4] was inactive. For the same compound, the Ratio in the test filed under Homo sapiens was 0.188. In addition, the EC50 in the test with MCF7 [5] was 0.0052 µM.
Take `Oc1ccc(N(Cc2ccccc2)c2ccc(O)cc2)cc1`: the values for the relative binding affinity (RBA) in test [1] and in test [2] were 0.655 and 18.1, respectively. The Activity in the test with MCF7 [3] is recorded as 85. Further, the result in the test on MCF7 [4] was inactive. For the same compound, the Ratio in the test filed under Homo sapiens was 27.7. The compound further returned a 50% effective concentration (EC50) in the test on MCF7 [5] of 0.067 µM.
As for `CN(c1ccc(O)cc1)c1ccc(O)cc1`, the relative binding affinity (RBA) in test [1] and in test [2] was less than 0.001 in each case. Besides, the result in the test with MCF7 [4] and in the test on MCF7 [6] was inactive.
For `O=C(c1ccccc1)N(c1ccc(O)cc1)c1ccc(O)cc1`, the figures for the relative binding affinity (RBA) in test [1] and in test [2] were 0.193 and 1.26, respectively. For the same compound, the Activity in the test on MCF7 [3] is on record as 114. In the test with MCF7 [4], the outcome was inactive. For the same compound, the Ratio in the test listed under Homo sapiens is 6.52. Also, in the test with MCF7 [5], the midpoint of the response, the EC50, lay at 0.014 µM.
